The text below walks through data of paper PMC2982795 (Nature structural & molecular biology, 2009).

In test [1] the target is T1, hMSH2/MSH3 (Homo sapiens, UniProt P20585+P43246). The test is described as follows: fluorescence anisotropy competition, displacement of pre-bound BD-ADP. The format is binding. A general note: In fluorescence polarisation assays a small probe gives low polarisation when free and higher when bound to something large.
The target in test [2] is T2, hMSH2/MSH6 (Homo sapiens, UniProt P43246+P52701). Description: UV cross-linking of [alpha-32P]-ADP, SDS-PAGE. It is filed as binding.
The target in test [3] is T1, hMSH2/MSH3. Description: UV cross-linking of [alpha-32P]-ADP, SDS-PAGE. The format is binding. Particulars: 5 mM Mg2+; pH 8.1; no DNA; either hMSH2 or hMSH3 subunit.
Test [4] deals with T2, hMSH2/MSH6. The test is described as follows: fluorescence anisotropy, equilibrium binding. Particulars: no DNA, labelled compound.
In test [5] the target is T1, hMSH2/MSH3. The test is described as follows: UV cross-linking of [alpha-32P]-AMP-PNP, SDS-PAGE. It is filed as binding. Particulars: +Mg2+; no DNA.

Where two headings read alike, the source gives them in different places.

T1 sequence (P43246 2-934): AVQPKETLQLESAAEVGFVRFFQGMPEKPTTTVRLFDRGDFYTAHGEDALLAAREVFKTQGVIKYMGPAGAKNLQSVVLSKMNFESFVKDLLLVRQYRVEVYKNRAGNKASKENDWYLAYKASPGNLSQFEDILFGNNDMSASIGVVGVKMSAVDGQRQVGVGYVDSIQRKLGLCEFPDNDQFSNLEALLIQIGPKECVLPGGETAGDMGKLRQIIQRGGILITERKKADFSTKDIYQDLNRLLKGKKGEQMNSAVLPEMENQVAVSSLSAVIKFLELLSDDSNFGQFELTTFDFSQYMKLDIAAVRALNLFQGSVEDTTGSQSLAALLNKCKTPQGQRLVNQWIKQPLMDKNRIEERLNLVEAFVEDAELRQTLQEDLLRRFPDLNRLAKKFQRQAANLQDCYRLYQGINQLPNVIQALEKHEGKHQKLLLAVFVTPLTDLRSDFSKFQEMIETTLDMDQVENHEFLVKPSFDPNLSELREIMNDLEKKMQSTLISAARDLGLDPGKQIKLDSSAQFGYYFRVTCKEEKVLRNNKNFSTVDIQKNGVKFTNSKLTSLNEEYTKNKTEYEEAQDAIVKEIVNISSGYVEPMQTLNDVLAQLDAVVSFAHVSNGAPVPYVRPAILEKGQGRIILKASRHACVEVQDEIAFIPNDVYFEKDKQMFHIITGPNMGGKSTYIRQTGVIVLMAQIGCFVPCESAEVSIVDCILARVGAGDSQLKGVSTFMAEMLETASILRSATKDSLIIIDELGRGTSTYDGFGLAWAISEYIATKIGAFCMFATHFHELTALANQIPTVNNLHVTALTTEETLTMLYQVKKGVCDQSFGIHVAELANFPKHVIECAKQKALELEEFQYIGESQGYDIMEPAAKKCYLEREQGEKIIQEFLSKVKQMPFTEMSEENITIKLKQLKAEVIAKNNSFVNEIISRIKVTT
T1 sequence (P20585 whole entry): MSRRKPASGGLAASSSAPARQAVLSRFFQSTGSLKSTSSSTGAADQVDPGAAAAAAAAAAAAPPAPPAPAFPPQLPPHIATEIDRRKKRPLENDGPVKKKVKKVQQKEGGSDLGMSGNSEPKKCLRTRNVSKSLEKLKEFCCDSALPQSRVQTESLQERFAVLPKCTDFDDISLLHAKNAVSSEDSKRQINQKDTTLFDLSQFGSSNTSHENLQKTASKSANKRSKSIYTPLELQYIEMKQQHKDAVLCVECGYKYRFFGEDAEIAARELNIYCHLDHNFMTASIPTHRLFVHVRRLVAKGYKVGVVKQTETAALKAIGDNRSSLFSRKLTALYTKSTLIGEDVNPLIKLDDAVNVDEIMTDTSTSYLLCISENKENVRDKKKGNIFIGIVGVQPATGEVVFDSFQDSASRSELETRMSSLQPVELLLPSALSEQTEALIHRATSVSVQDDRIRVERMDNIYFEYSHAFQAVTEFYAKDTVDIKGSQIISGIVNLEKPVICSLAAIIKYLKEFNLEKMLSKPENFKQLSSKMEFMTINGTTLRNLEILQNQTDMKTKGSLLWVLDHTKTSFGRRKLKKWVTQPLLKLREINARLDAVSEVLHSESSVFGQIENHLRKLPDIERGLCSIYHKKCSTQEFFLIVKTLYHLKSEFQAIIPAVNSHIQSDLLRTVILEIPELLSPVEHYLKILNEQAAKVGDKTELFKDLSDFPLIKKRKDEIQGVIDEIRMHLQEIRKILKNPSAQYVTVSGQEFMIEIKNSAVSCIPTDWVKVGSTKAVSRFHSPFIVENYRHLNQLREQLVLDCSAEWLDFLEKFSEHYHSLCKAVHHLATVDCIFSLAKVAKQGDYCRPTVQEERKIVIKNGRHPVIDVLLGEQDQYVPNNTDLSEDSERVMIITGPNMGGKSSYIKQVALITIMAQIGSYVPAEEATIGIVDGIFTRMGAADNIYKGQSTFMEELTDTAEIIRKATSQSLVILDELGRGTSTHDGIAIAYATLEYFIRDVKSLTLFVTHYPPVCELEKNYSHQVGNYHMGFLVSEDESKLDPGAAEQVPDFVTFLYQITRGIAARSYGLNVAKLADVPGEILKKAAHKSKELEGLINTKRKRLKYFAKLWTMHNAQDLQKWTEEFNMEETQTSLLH
T2 sequence (P43246 2-934): as the sequence (P43246 2-934) above
T2 sequence (P52701 whole entry): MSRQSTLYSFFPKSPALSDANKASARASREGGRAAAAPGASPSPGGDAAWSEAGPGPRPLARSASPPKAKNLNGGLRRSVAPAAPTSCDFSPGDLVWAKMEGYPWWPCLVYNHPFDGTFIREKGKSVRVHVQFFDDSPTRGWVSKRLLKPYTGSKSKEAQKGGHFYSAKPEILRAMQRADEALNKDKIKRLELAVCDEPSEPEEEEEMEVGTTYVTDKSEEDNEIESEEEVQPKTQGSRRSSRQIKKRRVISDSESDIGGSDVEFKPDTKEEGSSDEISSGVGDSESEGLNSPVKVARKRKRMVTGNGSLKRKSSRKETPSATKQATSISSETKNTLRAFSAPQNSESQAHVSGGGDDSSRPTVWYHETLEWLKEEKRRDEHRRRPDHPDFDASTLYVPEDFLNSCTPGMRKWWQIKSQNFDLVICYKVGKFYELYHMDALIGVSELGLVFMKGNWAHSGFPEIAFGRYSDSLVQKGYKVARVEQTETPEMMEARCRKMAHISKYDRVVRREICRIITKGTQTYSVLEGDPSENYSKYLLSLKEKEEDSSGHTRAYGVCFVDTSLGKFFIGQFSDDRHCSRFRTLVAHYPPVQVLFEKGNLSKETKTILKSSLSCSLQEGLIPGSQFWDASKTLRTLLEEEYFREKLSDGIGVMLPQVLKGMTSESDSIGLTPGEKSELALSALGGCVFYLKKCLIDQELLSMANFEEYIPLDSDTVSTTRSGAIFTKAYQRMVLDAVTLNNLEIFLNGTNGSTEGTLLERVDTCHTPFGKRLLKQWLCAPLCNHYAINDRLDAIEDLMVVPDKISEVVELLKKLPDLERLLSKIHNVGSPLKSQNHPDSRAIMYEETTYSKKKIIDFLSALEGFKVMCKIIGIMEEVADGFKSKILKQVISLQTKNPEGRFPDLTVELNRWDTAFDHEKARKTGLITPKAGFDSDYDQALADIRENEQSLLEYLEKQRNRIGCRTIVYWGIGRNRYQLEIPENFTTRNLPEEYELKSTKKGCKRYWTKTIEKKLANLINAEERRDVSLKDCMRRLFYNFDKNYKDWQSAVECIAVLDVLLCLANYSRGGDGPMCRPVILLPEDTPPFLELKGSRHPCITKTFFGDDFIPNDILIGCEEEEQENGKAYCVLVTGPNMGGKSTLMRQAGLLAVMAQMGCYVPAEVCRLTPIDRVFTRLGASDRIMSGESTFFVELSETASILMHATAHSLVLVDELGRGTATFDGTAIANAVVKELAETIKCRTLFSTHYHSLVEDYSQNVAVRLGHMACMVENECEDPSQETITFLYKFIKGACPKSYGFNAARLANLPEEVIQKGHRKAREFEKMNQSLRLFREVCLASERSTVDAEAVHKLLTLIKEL

Usually Ki stands for a measure of affinity in units of concentration, obtained from inhibition or displacement. The low end stands for tighter binding, the high end for weaker binding. For `Nc1ncnc2c1ncn2[C@@H]1O[C@H](COP(=O)(O)OP(=O)(O)O)[C@@H](O)[C@H]1O` [ADP], the Ki entry at hMSH2/MSH3 [1] (+Mg2+, no DNA, competitive, hMSH3 subunit) was “compare KD and Ki for ADP in Supplemental Fig. 1a,c”. For the same molecule, on hMSH2/MSH6 [2], the Kd turned out to be 650 nM. Besides, on hMSH2/MSH3 [3], the KD result is “both subunits bound either nucleotide with high affinity, as quantified by the gel scans”.

Take BD-AMP-PNP: the Kd at hMSH2/MSH6 [4] (read-out: binding affinity, +Mg2+) amounted to 230 nM.

Molecule BD-ATP registered a Kd on hMSH2/MSH6 [4] (no Mg2+ (non-hydrolyzing)) of 390 nM.

On to `Nc1ncnc2c1ncn2[C@@H]1O[C@H](COP(=O)(O)OP(=O)(O)NP(=O)(O)O)[C@@H](O)[C@H]1O` [AMP-PNP], for which the Ki at hMSH2/MSH3 [1] worked out at 11300 nM. For the same molecule, the KD result at hMSH2/MSH3 [5] is “Results for x-linking with AMP-PNP displayed the same trend”.
